Source: patent US9511074B2, “Methods of treating disorders associated with protein polymerization” (UNIVERSITY OF PITTSBURGH—OF THE COMMONWEALTH SYSTEM OF …, priority 2009, dated 2016)

Legend:
[1] = tested on: ATZ in Atg5 deficient cell line; experiment: ATZ levels in autophagy-deficient (Atg5-/-) MEF cell line; type: cell-based, murine; conditions: Atg5-deficient cells
Description: (§1) Cell Lines The human epidermal HeLa cell line with doxycycline-regulated expression of ATZ (HTO/Z) has been described previously (1). HTO/M and HTO/Saar are HeLa cell lines with doxycycline-regulated expression of wild type AT and the AT Saar variant, respectively (1). A murine embryonic fibroblast cell line (MEF) with targeted disruption of Atg5 (2) was engineered for stable expression of ATZ using the previously described pRc/RSV-ATZ expression plasmid (3). A wild type MEF cell line was also engineered for stable expression of ATZ in the same way to serve as control. For experiments with CBZ, the inducible cell lines were cultured in the absence of doxycycline for at least 4 weeks for maximal expression of AT. The cells were then subcultured into separate monolayers in fresh complete growth medium and incubated for 48 hours in the absence or presence of CBZ or rapamycin (RAP). CBZ or RAP were added to the growth medium. The duration of incubation with CBZ was determined to be optimal at 48 hours based on experiments in which the duration was varied from 12 to 72 hours. Doses of CBZ were based on previous studies of its effects in cell lines (5,6). […]
(§2) For immunoblot analysis to detect AT, GAPDH or LC3, cells were lysed in 50 mM Tris-HCl, 150 mM NaCl, 1% NP-40, pH 8.0. Protein levels were quantified using the BCA protein assay (Pierce Biotechnology, Rockford, Ill.). […]

[2] = tested on: wild type AT in the HTO/M cell line; experiment: Steady state levels of wild type AT in the HTO/M cell line (immunoblot); type: cell-based, human; conditions: FIG. 1D
Description: as §1, §2

[3] = tested on: PiZ mice; experiment: Hepatic fibrosis in PiZ mice (Sirius Red, hepatic hydroxyproline); type: in vivo, mouse
Description: Transgenic Mice PiZ mice that have been bred into the C57/BL6 background have been described previously (1). For the second and third series of experiments with CBZ we used PiZ mice that were re-derived onto the FVB/N background for a move into a new animal facility. The transgene that was used to generate the PiZ mouse is a genomic fragment of DNA that contains the coding regions of the ATZ gene together with introns and ˜2 kilobases of upstream and downstream flanking regions (10). […] In this perspective it is not an exact phenocopy of the classical form of AT deficiency. In particular it cannot be a model for the loss-of-function mechanisms associated with the classical form of AT deficiency. It is known to have abundant expression of ATZ in hepatocytes and other cell types that express ATZ in humans (11). In the liver there are abundant ATZ-containing intrahepatocytic globules and inflammation that is characteristic of what is seen in the human liver (11,12). […] Taken together, these observations indicate that the PiZ mouse is an appropriate model for the gain-of-toxic function mechanism that is responsible for liver damage in the classical form of AT deficiency. Indeed, the fact that these mice are endowed with endogenous AT function and therein normal levels of AT in the serum and body fluids make them an even more ‘pure’ model for liver damage by gain-of-toxic function. PiZ×GFP-LC3 mice, which generated green fluorescent autophagosomes, have been described previously (2). PiZ×IKKβ.hep were generated by mating of PiZ to IKKβ.hep, which has conditional hepatocyte-specific disruption of NF.B activation (M. Karin, 17). There is increased injury in the liver of these mice as evidenced by the hepatic hydroxyproline content, 153.3% of that in the PiZ mouse (FIG. 7).
Histology Sections of liver tissue were stained with hematoxylin and eosin, PAS, PAS after diastase treatment, TUNEL, PCNA, Ki67 and Sirius Red using standard techniques (18). Previous methods for staining with antibody to smooth muscle actin were used (19). Each was examined by the pathologist (GM) who was completely blinded to the experimental protocol. Sections of liver tissue were also stained with goat anti-human AT followed by donkey anti-goat Cy3 to detect AT-containing intracellular globules. Finally sections of liver tissue were stained with anti-GFP to optimize the detection of green fluorescent autophagosomes. The number of inflammatory nodules, AT-containing globules and autophagosomes were each quantified blindly by counting cells in 6 microscopic fields of 10 different sections for each liver. The number of nuclei, as determined by Hoechst staining, was used to exclude the possibility that different numbers of cells were counted in liver sections from mice treated with CBZ as compared to controls. Hepatic hydroxyproline concentration was determined by a well-established protocol (20,21).
Therapeutic regimens For the initial series of experiments in mice in vivo, the dose of 250 mg/kg/day for CBZ was based on previous studies of its biological effects in mice (22,23). […] CBZ was administered in DMSO by gavage once per day. Control mice were given an equivalent volume of DMSO by gavage. In a second series of experiments, doses of 200, 100 and 50 mg/kg/day of CBZ were administered for 6 weeks. The dose and route of administration of RAP, 2 mg/kg/day by intraperitoneal injection for 2 weeks, was based on previous studies that have shown activation of hepatic autophagy (24).

[4] = tested on: AT Saar in the HTO/Saar cell line; experiment: Levels of AT Saar variant in the HTO/Saar cell line; type: cell-based, human; conditions: FIG. 3D
Description: as §1, §2

[5] = tested on: ATZ in the HTO/Z cell line; experiment: Pulse labeling and pulse-chase labeling of ATZ in the HTO/Z line; type: cell-based, human
Protocol: Radioimmunoprecipitation, SDS-PAGE and Immunoblot Analysis Biosynthetic labeling, pulse-chase labeling, immunoprecipitation and SDS-PAGE/fluorography for AT followed previously published protocols (1). […] For the pulse labeling experiments, HTO/Z cells were incubated for 48 hours in the absence or presence of CBZ in several different concentrations and then subjected to labeling for 30 mins. The cell lysates were then examined by immunoprecipitation and the immunoprecipitates analyzed by SDS-PAGE/fluorography. For the pulse-chase experiments, HTO/Z cells were incubated for 48 hours in the absence of presence of CBZ 30 μM and then pulse labeled for 30 mins. The cells were then washed and incubated in growth medium without tracer for several different time intervals to constitute the chase. CBZ 30 μM was included during the pulse and chase periods. The extracellular fluid and cell lysate samples were subjected to immunoprecipitation and the immunoprecipitates analyzed by SDS-PAGE/fluorography. All fluorograms were subjected to densitometry. The relative densitometric value of T0 is set at 100% and the remainder of the data set expressed as % of this control. The data are shown as mean+/−SE and the mean value at each time point is shown at the bottom of the figure.

`NC(=O)N1c2ccccc2C=Cc2ccccc21` [CBZ, 5H-dibenz [b,f]azepine-5-carboxamide] was tested. Which “levels of soluble ATZ” value [1] did it give?
The value was “decrease”.

What about the “wild-type AT levels” value [2] of the same compound?
The value was “did not affect”.

What about the hepatic hydroxyproline concentrations ([3]; 200 mg kg-1 day-1 for 6 weeks) of the same compound?
The hepatic hydroxyproline concentrations was “decreased”.

What about the “hepatic fibrosis (Sirius red)” value ([3]; 250 mg kg-1 for 2 weeks, FIG. 4E) of the same compound?
Its value is “marked decrease”.

And the “decrease of hepatic hydroxyproline content” value ([3]; PiZ mice vs untreated PiZ, FIG. 7)?
The value was 46.7%.

And the “lowest effective dose (hepatic hydroxyproline)” value ([3]; PiZ mice, 6 weeks)?
The value was 200 mg/kg/day.

And the hepatic hydroxyproline concentration ([3]; PiZ mice, mean±SD, control 2.27±1.02, P=0.0074)?
Its hepatic hydroxyproline concentration is 1.21 ± 0.7 µg/mg dry weight.

What about the “levels of AT Saar (soluble fraction)” value [4] of the same compound?
Its value is “degraded by CBZ in a manner almost identical to that of ATZ”.

And the “total protein synthesis or secretion (radioactivity in TCA precipitates)” value ([5]; HTO/Z cells)?
Its value is “did not show any effects”.

And the “synthesis of ATZ” value ([5]; pulse labeling 30 mins after 48 hours CBZ)?
Its value is “did not affect”.

And the “secretion of ATZ” value ([5]; pulse-chase, CBZ 30 μM)?
The value was “could not be attributed to enhanced secretion”.

And the “half-time of disappearance of ATZ from the intracellular compartment” value ([5]; pulse-chase, CBZ 30 μM, 200 min in untreated cells)?
Its value is 130 min.
